# Measurements: patent US9695155B2, “Herbicidal substituted pyrimidinyloxy benzene compounds” (E. I. DU PONT DE NEMOURS AND COMPANY, priority 2013, dated 2017)
# Tests used:
# [1] = system: barnyardgrass; test: Test A preemergence; type: in vivo, Echinochloa crus-galli; settings: Echinochloa crus-galli, pre-emergence, 240 h
# How it was run: (§1)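 Visual injury scored 0–100 (100 = complete control) against untreated controls about 10 days after treatment in a greenhouse. Test chemicals, formulated with surfactant in non-phytotoxic solvent, were sprayed on soil preemergence or on 2-10 cm, one- to two-leaf plants postemergence.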
# [2] = system: giant foxtail; test: Test A preemergence; type: in vivo, Setaria faberii; settings: Setaria faberi, pre-emergence, 240 h
# How it was run: as §1
# [3] = system: morningglory; test: Test A preemergence; type: in vivo, Ipomoea spp.
# How it was run: as §1
# [4] = system: pigweed; test: Test A preemergence; type: in vivo, Amaranthus retroflexus; settings: Amaranthus retroflexus, pre-emergence
# How it was run: as §1
# [5] = system: morningglory; test: Test A postemergence; type: in vivo, Ipomoea spp.; settings: Ipomoea, post-emergence, 240 h, 0 to 100 scale where 0 is no effect and 100 is complete control, read-out: Plant response rating, Morningglory
# How it was run: as §1
# [6] = system: pigweed; test: Test A postemergence; type: in vivo, Amaranthus retroflexus; settings: Amaranthus retroflexus, post-emergence, 0 to 100 scale where 0 is no effect and 100 is complete control, read-out: Plant response rating, Pigweed
# How it was run: as §1
# [7] = system: sedge, umbrella; test: Test B flooded paddy test; type: in vivo, Cyperus difformis; settings: Cyperus difformis, Flood, 250 g ai/ha; 0 to 100 scale where 0 is no effect and 100 is complete control; read-out: Plant response rating, Sedge, Umbrella
# How it was run: (§2)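 Plants were grown to the 2-leaf stage, then pots were flooded to 3 cm above the soil and compounds were applied directly into the paddy water. That depth was held throughout, and after 13 to 15 days in the greenhouse injury was rated visually against controls on a 0–100 scale (0 no effect, 100 complete control).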
# [8] = system: barnyardgrass; test: Test B flooded paddy test; type: in vivo, Echinochloa crus-galli; settings: Echinochloa crus-galli; Flood, 250 g ai/ha; 0 to 100 scale where 0 is no effect and 100 is complete control; read-out: Plant response rating, Barnyardgrass
# How it was run: as §2
# [9] = system: blackgrass; test: Test C postemergence; type: in vivo, Alopecurus myosuroides; settings: Alopecurus myosuroides, post-emergence
# How it was run: (§3)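 Preemergence: seeds sown in a loam soil–sand blend and sprayed with test chemical in a non-phytotoxic solvent mixture containing surfactant. Postemergence: plants at 2 to 18 cm (1- to 4-leaf stage) in peat-based medium, treated with the same formulation. Greenhouse 13 to 15 days, then visual rating 0 (no effect) to 100 (complete control).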
# [10] = system: Italian ryegrass; test: Test C postemergence; type: in vivo, Lolium multiflorum; settings: Lolium multiflorum, post-emergence
# How it was run: as §3
# [11] = system: corn; test: Test C postemergence; type: in vivo, Zea mays; settings: Zea mays, post-emergence
# How it was run: as §3
# [12] = system: large (Lg) crabgrass; test: Test C postemergence; type: in vivo, Digitaria sanguinalis; settings: Digitaria sanguinalis, post-emergence
# How it was run: as §3
# [13] = system: giant foxtail; test: Test C postemergence; type: in vivo, Setaria faberii; settings: Setaria faberi, post-emergence
# How it was run: as §3
# [14] = system: johnsongrass; test: Test C postemergence; type: in vivo, Sorghum halepense; settings: Sorghum halepense, post-emergence
# How it was run: as §3
# [15] = system: chickweed; test: Test C postemergence; type: in vivo, Stellaria media; settings: Stellaria media, post-emergence
# How it was run: as §3
compound,measurement,setting,value
"N#Cc1cccc(Oc2ncc(F)cn2)c1-n1cc(C(F)(F)F)cn1 [Compound 79, 3-[(5-fluoro-2-pyrimidinyl)oxy]-2-[4-(trifluoromethyl)-1H-pyrazol-1-yl]benzonitrile]",pest or weed control at 125 g/ha,"[1]; 125 g ai/ha, 0 to 100 scale where 0 is no effect and 100 is complete control, read-out: Plant response rating, Barnyardgrass",100%
same,pest or weed control at 500 g/ha,"[1]; 500 g ai/ha, 0 to 100 scale, 0 no effect, 100 complete control, approx. 10 days, read-out: Barnyardgrass plant response rating",100%
same,pest or weed control at 125 g/ha,"[2]; 125 g ai/ha, 0 to 100 scale where 0 is no effect and 100 is complete control, read-out: Plant response rating, Foxtail, Giant",100%
same,pest or weed control at 500 g/ha,"[2]; 500 g ai/ha, 0 to 100 scale, 0 no effect, 100 complete control, approx. 10 days, read-out: Foxtail, Giant plant response rating",100%
same,"Plant response rating, Morningglory","[3]; 125 g ai/ha, 0 to 100 scale where 0 is no effect and 100 is complete control",100
same,pest or weed control at 500 g/ha,"[3]; Ipomoea, pre-emergence, 240 h, 500 g ai/ha, 0 to 100 scale, 0 no effect, 100 complete control, approx. 10 days, read-out: Morningglory plant response rating",100%
same,pest or weed control at 125 g/ha,"[4]; 125 g ai/ha, 0 to 100 scale where 0 is no effect and 100 is complete control, read-out: Plant response rating, Pigweed",100%
same,pest or weed control at 500 g/ha,"[4]; 240 h, 500 g ai/ha, 0 to 100 scale, 0 no effect, 100 complete control, approx. 10 days, read-out: Pigweed plant response rating",100%
same,pest or weed control at 125 g/ha,[5]; 125 g ai/ha,100%
same,pest or weed control at 500 g/ha,[5]; 500 g ai/ha,100%
same,pest or weed control at 125 g/ha,[6]; 125 g ai/ha,100%
same,pest or weed control at 500 g/ha,[6]; 500 g ai/ha,100%
same,pest or weed control at 250 g/ha,[7],95%
same,pest or weed control at 250 g/ha,[8],40%
same,pest or weed control at 125 g/ha,"[9]; 125 g ai/ha, postemergence, read-out: Plant response rating (0 to 100), Blackgrass",35%
same,pest or weed control at 250 g/ha,"[9]; 250 g ai/ha, postemergence, read-out: Plant response rating (0 to 100), Blackgrass",80%
same,pest or weed control at 31 g/ha,"[9]; Postemergence, 31 g ai/ha, scale 0 to 100 (0 no effect, 100 complete control), 13 to 15 days, read-out: Plant response rating, Blackgrass",10%
same,pest or weed control at 62 g/ha,"[9]; Postemergence, 62 g ai/ha, scale 0 to 100 (0 no effect, 100 complete control), read-out: Plant response rating, Blackgrass",30%
same,pest or weed control at 125 g/ha,"[10]; 125 g ai/ha, postemergence, read-out: Plant response rating (0 to 100), Ryegrass, Italian",20%
same,pest or weed control at 250 g/ha,"[10]; 250 g ai/ha, postemergence, read-out: Plant response rating (0 to 100), Ryegrass, Italian",20%
same,pest or weed control at 31 g/ha,"[10]; Postemergence, 31 g ai/ha, scale 0 to 100 (0 no effect, 100 complete control), 13 to 15 days, read-out: Plant response rating, Ryegrass, Italian",5%
same,pest or weed control at 62 g/ha,"[10]; Postemergence, 62 g ai/ha, scale 0 to 100 (0 no effect, 100 complete control), read-out: Plant response rating, Ryegrass, Italian",10%
same,plant injury at 125 g/ha,"[11]; 125 g ai/ha, postemergence, read-out: Plant response rating (0 to 100), Corn",15%
same,plant injury at 250 g/ha,"[11]; 250 g ai/ha, postemergence, read-out: Plant response rating (0 to 100), Corn",35%
same,"Corn plant response rating (crop injury, 0 = no effect, 100 = complete kill) at 31 g/ha","[11]; Postemergence, 31 g ai/ha, scale 0 to 100 (0 no effect, 100 complete control), 13 to 15 days",5%
same,"Corn plant response rating (crop injury, 0 = no effect, 100 = complete kill) at 62 g/ha","[11]; Postemergence, 62 g ai/ha, scale 0 to 100 (0 no effect, 100 complete control)",5%
same,pest or weed control at 125 g/ha,"[12]; 125 g ai/ha, postemergence, read-out: Plant response rating (0 to 100), Crabgrass, Large",30%
same,pest or weed control at 250 g/ha,"[12]; 250 g ai/ha, postemergence, read-out: Plant response rating (0 to 100), Crabgrass, Large",65%
same,pest or weed control at 31 g/ha,"[12]; Postemergence, 31 g ai/ha, scale 0 to 100 (0 no effect, 100 complete control), 13 to 15 days, read-out: Plant response rating, Crabgrass, Large",20%
same,pest or weed control at 62 g/ha,"[12]; Postemergence, 62 g ai/ha, scale 0 to 100 (0 no effect, 100 complete control), read-out: Plant response rating, Crabgrass, Large",20%
same,pest or weed control at 125 g/ha,"[13]; 125 g ai/ha, postemergence, read-out: Plant response rating (0 to 100), Foxtail, Giant",20%
same,pest or weed control at 250 g/ha,"[13]; 250 g ai/ha, postemergence, read-out: Plant response rating (0 to 100), Foxtail, Giant",65%
same,pest or weed control at 31 g/ha,"[13]; Postemergence, 31 g ai/ha, scale 0 to 100 (0 no effect, 100 complete control), 13 to 15 days, read-out: Plant response rating, Foxtail, Giant",10%
same,pest or weed control at 62 g/ha,"[13]; Postemergence, 62 g ai/ha, scale 0 to 100 (0 no effect, 100 complete control), read-out: Plant response rating, Foxtail, Giant",10%
same,pest or weed control at 125 g/ha,"[14]; 125 g ai/ha, postemergence, read-out: Plant response rating (0 to 100), Johnsongrass",40%
same,pest or weed control at 250 g/ha,"[14]; 250 g ai/ha, postemergence, read-out: Plant response rating (0 to 100), Johnsongrass",85%
same,pest or weed control at 31 g/ha,"[14]; Postemergence, 31 g ai/ha, scale 0 to 100 (0 no effect, 100 complete control), 13 to 15 days, read-out: Plant response rating, Johnsongrass",5%
same,pest or weed control at 62 g/ha,"[14]; Postemergence, 62 g ai/ha, scale 0 to 100 (0 no effect, 100 complete control), read-out: Plant response rating, Johnsongrass",10%
same,pest or weed control at 125 g/ha,"[15]; 125 g ai/ha, postemergence, read-out: Plant response rating (0 to 100), Chickweed",90%
same,pest or weed control at 250 g/ha,"[15]; 250 g ai/ha, postemergence, read-out: Plant response rating (0 to 100), Chickweed",95%
same,pest or weed control at 31 g/ha,"[15]; Postemergence, 31 g ai/ha, scale 0 to 100 (0 no effect, 100 complete control), 13 to 15 days, read-out: Plant response rating, Chickweed",50%
same,pest or weed control at 62 g/ha,"[15]; Postemergence, 62 g ai/ha, scale 0 to 100 (0 no effect, 100 complete control), read-out: Plant response rating, Chickweed",65%
